In brackets after ≈: the same amount, converted by molar mass.
Tests used:
[1] = biological target: T1, PBP3 from Pseudomonas aeruginosa (PAO1) (Pseudomonas aeruginosa, UniProt G3XD46); assay: Bocillin-FL fluorescence polarization competition binding, P. aeruginosa PBP3; details: Binding affinity to P. aeruginosa PBP3; fluorescence polarization competition binding assay using Bocillin-FL; read-out: P. aeruginosa PBP3 Potency
T1 construct: made in house
Procedure, shortened: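 Purified PBP was preincubated with inhibitor (E. coli PBP3 1.5 μM, 30 min; P. aeruginosa PBP3 0.75 μM, A. baumannii PBP3 0.2 μM and PBP1a 1 μM, 15 min), then Bocillin-FL (0.1 μM; 0.05 μM for PBP1a) added and FP read up to 60 min. EC50 = 50% loss of bound probe.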

[2] = test system: N. gonorrhoeae WHO M; assay: Liquid broth MIC in Fastidious broth; details: Neisseria gonorrhoeae, read-out: Minimum Inhibitory Concentration (MIC), N. gonorrhoeae WHO M
[3] = test system: N. gonorrhoeae WHO X; assay: Liquid broth MIC in Fastidious broth; details: Neisseria gonorrhoeae, read-out: Minimum Inhibitory Concentration (MIC), N. gonorrhoeae WHO X
[4] = test system: N. gonorrhoeae MS11; assay: Liquid broth MIC in Fastidious broth; details: Neisseria gonorrhoeae, MS11, read-out: Minimum Inhibitory Concentration (MIC), N. gonorrhoeae MS11
[5] = test system: N. gonorrhoeae CDC-0197; assay: Liquid broth MIC in Fastidious broth; details: Neisseria gonorrhoeae, CDC0197, read-out: Minimum Inhibitory Concentration (MIC), N. gonorrhoeae CDC-0197
[6] = test system: N. gonorrhoeae ATCC 49226; assay: Liquid broth MIC in Fastidious broth; details: Neisseria gonorrhoeae, ATCC49226, read-out: Minimum Inhibitory Concentration (MIC), N. gonorrhoeae ATCC 49226
[7] = test system: A. baumannii ATCC 17978; assay: microbe, parasite or virus in culture; type: cell-based; details: Acinetobacter baumannii, ATCC17978, read-out: MIC, A. baumannii ATCC 17978
[8] = test system: A. baumannii CDC-0036; assay: microbe, parasite or virus in culture; type: cell-based; details: Acinetobacter baumannii, CDC0036, read-out: MIC, A. baumannii CDC-0036
[9] = test system: A. baumannii CDC-0033; assay: microbe, parasite or virus in culture; type: cell-based; details: Acinetobacter baumannii, CDC0033, read-out: MIC, A. baumannii CDC-0033
[10] = test system: A. baumannii CDC-0083; assay: microbe, parasite or virus in culture; type: cell-based; details: Acinetobacter baumannii, CDC0083, read-out: MIC, A. baumannii CDC-0083
[11] = test system: P. aeruginosa ATCC 35151; assay: microbe, parasite or virus in culture; type: cell-based; details: Pseudomonas aeruginosa, ATCC35151, read-out: Minimum inhibitory concentration, P. aeruginosa ATCC 35151
[12] = test system: P. aeruginosa CDC-0110; assay: microbe, parasite or virus in culture; type: cell-based; details: Pseudomonas aeruginosa, CDC0110, read-out: Minimum inhibitory concentration, P. aeruginosa CDC-0110
[13] = test system: P. aeruginosa CDC-0095; assay: microbe, parasite or virus in culture; type: cell-based; details: Pseudomonas aeruginosa, CDC0095, read-out: Minimum inhibitory concentration, P. aeruginosa CDC-0095
[14] = test system: A. baumannii ATCC 19606; assay: microbe, parasite or virus in culture; type: cell-based; details: Acinetobacter baumannii, ATCC19606, read-out: MIC, A. baumannii ATCC 19606
[15] = test system: A. baumannii 1258916; assay: microbe, parasite or virus in culture; type: cell-based, Acinetobacter baumannii; details: Acinetobacter baumannii, 1258916, read-out: MIC, A. baumannii 1258916

T1 sequence (G3XD46 whole entry): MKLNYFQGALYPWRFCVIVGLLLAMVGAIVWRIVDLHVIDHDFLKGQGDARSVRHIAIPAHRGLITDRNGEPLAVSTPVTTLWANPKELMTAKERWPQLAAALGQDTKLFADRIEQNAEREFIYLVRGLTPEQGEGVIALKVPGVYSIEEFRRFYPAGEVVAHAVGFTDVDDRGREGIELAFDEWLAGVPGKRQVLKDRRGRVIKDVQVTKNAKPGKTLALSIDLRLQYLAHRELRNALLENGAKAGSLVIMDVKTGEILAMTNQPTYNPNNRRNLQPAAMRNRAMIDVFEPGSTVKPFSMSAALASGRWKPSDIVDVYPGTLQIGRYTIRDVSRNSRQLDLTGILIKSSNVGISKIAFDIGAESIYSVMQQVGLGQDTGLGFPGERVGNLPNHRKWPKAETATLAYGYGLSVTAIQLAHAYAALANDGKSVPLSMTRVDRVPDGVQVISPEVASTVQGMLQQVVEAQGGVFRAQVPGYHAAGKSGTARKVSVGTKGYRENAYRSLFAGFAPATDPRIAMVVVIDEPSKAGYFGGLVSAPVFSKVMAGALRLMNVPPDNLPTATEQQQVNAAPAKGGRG

| Structure (SMILES) | IC50 [1] [µM] | MIC [2] [µg/mL] | MIC [3] [µg/mL] | MIC [4] [µg/mL] | MIC [5] [µg/mL] | MIC [6] [µg/mL] | MIC [7] [µg/mL] | MIC [8] [µg/mL] | MIC [9] [µg/mL] | MIC [10] [µg/mL] | MIC [11] [µg/mL] | MIC [12] [µg/mL] | MIC [13] [µg/mL] | MIC [14] [µg/mL] | MIC [15] [µg/mL] |
| --- | --- | --- | --- | --- | --- | --- | --- | --- | --- | --- | --- | --- | --- | --- | --- |
| O=C(O)c1cccc2c1OB(O)[C@@H](NC(=O)[C@@H](NC(=O)c1cnc3n(c1=O)CCS3)c1ccc(P(=O)(O)O)cc1)C2 (single isomer, unassigned) [Example 196] | 50 to 250 | 16 to 32 (≈ 26.7 to 53.3 µM) | 16 to 32 (≈ 26.7 to 53.3 µM) | 16 to 32 (≈ 26.7 to 53.3 µM) | 16 to 32 (≈ 26.7 to 53.3 µM) | 16 to 32 (≈ 26.7 to 53.3 µM) | – | – | – | – | – | – | – | – | – |
| O=C(O)c1cccc2c1OB(O)[C@@H](NC(=O)[C@H](NC(=O)c1cnc3n(c1=O)CCS3)c1ccc(P(=O)(O)O)cc1)C2 (single isomer, unassigned) [Example 197] | < 10 | 4 to 8 (≈ 6.66 to 13.3 µM) | 16 to 32 (≈ 26.7 to 53.3 µM) | 16 to 32 (≈ 26.7 to 53.3 µM) | 16 to 32 (≈ 26.7 to 53.3 µM) | 16 to 32 (≈ 26.7 to 53.3 µM) | – | – | – | – | – | – | – | – | – |
| CCN1CCN(C(=O)NC(C(=O)N[C@H]2Cc3cccc(C(=O)O)c3OB2O)c2ccc(P(=O)(O)O)c(F)c2O)C(=O)C1=O (stereo partly drawn) [Example 198, (3R)-3-(2-(4-ethyl-2,3-dioxopiperazine-1-carboxamido)-2-(3-fluoro-2-hydroxy-4-phosphonophenyl)acetamido)-2-hydroxy-3,4-dihydro-2H-benzo[e][1,2]oxaborinine-8-carboxylic acid] | 10 to 50 | < 1 | 4 to 8 (≈ 6.43 to 12.9 µM) | < 1 | < 1 | < 1 | – | – | – | – | – | – | – | – | – |
| O=C(NCCN1CCN(C(=O)NC(C(=O)N[C@H]2Cc3ccc(F)c(C(=O)O)c3OB2O)c2cc(F)c(O)c(O)c2Cl)C(=O)C1=O)c1ccccc1 (stereo partly drawn) [Example 207, (3R)-3-(2-(4-(2-benzamidoethyl)-2,3-dioxopiperazine-1-carboxamido)-2-(2-chloro-5-fluoro-3,4-dihydroxyphenyl)acetamido)-7-fluoro-2-hydroxy-3,4-dihydro-2H-benzo[e][1,2]oxaborinine-8-carboxylic acid] | – | 16 to 32 (≈ 21.9 to 43.8 µM) | > 64 | 16 to 32 (≈ 21.9 to 43.8 µM) | 16 to 32 (≈ 21.9 to 43.8 µM) | 16 to 32 (≈ 21.9 to 43.8 µM) | < 1 | 8 to 16 (≈ 11 to 21.9 µM) | 8 to 16 (≈ 11 to 21.9 µM) | 2 to 4 (≈ 2.74 to 5.48 µM) | < 1 | < 1 | 2 to 4 (≈ 2.74 to 5.48 µM) | 2 to 4 (≈ 2.74 to 5.48 µM) | 2 to 4 (≈ 2.74 to 5.48 µM) |
| CN(CCN1CCN(C(=O)N[C@@H](C(=O)N[C@H]2Cc3ccc(F)c(C(=O)O)c3OB2O)c2cc(F)c(O)c(O)c2Cl)C(=O)C1=O)Cc1cncc(O)c1 [Example 208, (R)-3-((R)-2-(2-chloro-5-fluoro-3,4-dihydroxyphenyl)-2-(4-(2-(((5-hydroxypyridin-3-yl)methyl)(methyl)amino)ethyl)-2,3-dioxopiperazine-1-carboxamido)acetamido)-7-fluoro-2-hydroxy-3,4-dihydro-2H-benzo[e][1,2]oxaborinine-8-carboxylic acid] | – | 4 to 8 (≈ 5.36 to 10.7 µM) | > 64 | 4 to 8 (≈ 5.36 to 10.7 µM) | 16 to 32 (≈ 21.4 to 42.8 µM) | 4 to 8 (≈ 5.36 to 10.7 µM) | < 1 | 2 to 4 (≈ 2.68 to 5.36 µM) | 2 to 4 (≈ 2.68 to 5.36 µM) | < 1 | < 1 | < 1 | < 1 | < 1 | < 1 |
| CN(CCN1CCN(C(=O)N[C@@H](C(=O)N[C@H]2Cc3ccc(F)c(C(=O)O)c3OB2O)c2cc(F)c(O)c(O)c2Cl)C(=O)C1=O)Cc1ccc(N)nc1 [Example 209, (R)-3-((R)-2-(4-(2-(((6-aminopyridin-3-yl)methyl)(methyl)amino)ethyl)-2,3-dioxopiperazine-1-carboxamido)-2-(2-chloro-5-fluoro-3,4-dihydroxyphenyl)acetamido)-7-fluoro-2-hydroxy-3,4-dihydro-2H-benzo[e][1,2]oxaborinine-8-carboxylic acid] | – | 4 to 8 (≈ 5.36 to 10.7 µM) | > 64 | 4 to 8 (≈ 5.36 to 10.7 µM) | 16 to 32 (≈ 21.5 to 42.9 µM) | 4 to 8 (≈ 5.36 to 10.7 µM) | < 1 | 2 to 4 (≈ 2.68 to 5.36 µM) | 2 to 4 (≈ 2.68 to 5.36 µM) | < 1 | < 1 | < 1 | < 1 | < 1 | < 1 |
| O=C(NCCCN1CCN(C(=O)NC(C(=O)N[C@H]2Cc3ccc(F)c(C(=O)O)c3OB2O)c2cc(F)c(O)c(O)c2Cl)C(=O)C1=O)c1nccs1 (stereo partly drawn) [Example 211, (3R)-3-(2-(2-chloro-5-fluoro-3,4-dihydroxyphenyl)-2-(2,3-dioxo-4-(3-(thiazole-2-carboxamido)propyl)piperazine-1-carboxamido)acetamido)-7-fluoro-2-hydroxy-3,4-dihydro-2H-benzo[e][1,2]oxaborinine-8-carboxylic acid] | – | 16 to 32 (≈ 21.3 to 42.6 µM) | > 64 | 16 to 32 (≈ 21.3 to 42.6 µM) | 16 to 32 (≈ 21.3 to 42.6 µM) | 16 to 32 (≈ 21.3 to 42.6 µM) | < 1 | 2 to 4 (≈ 2.66 to 5.33 µM) | 2 to 4 (≈ 2.66 to 5.33 µM) | < 1 | < 1 | < 1 | 2 to 4 (≈ 2.66 to 5.33 µM) | < 1 | < 1 |
| O=C(O)c1c(F)ccc2c1OB(O)[C@@H](NC(=O)C(NC(=O)N1CCN(CCCNC(=O)[C@@H]3CCCN3)C(=O)C1=O)c1cc(F)c(O)c(O)c1Cl)C2 (stereo partly drawn) [Example 212, (3R)-3-(2-(2-chloro-5-fluoro-3,4-dihydroxyphenyl)-2-(2,3-dioxo-4-(3-((S)-pyrrolidine-2-carboxamido)propyl)piperazine-1-carboxamido)acetamido)-7-fluoro-2-hydroxy-3,4-dihydro-2H-benzo[e][1,2]oxaborinine-8-carboxylic acid] | – | 16 to 32 (≈ 21.7 to 43.4 µM) | > 64 | 16 to 32 (≈ 21.7 to 43.4 µM) | 16 to 32 (≈ 21.7 to 43.4 µM) | 16 to 32 (≈ 21.7 to 43.4 µM) | < 1 | 8 to 16 (≈ 10.9 to 21.7 µM) | 8 to 16 (≈ 10.9 to 21.7 µM) | 32 to 64 (≈ 43.4 to 86.9 µM) | < 1 | < 1 | 2 to 4 (≈ 2.71 to 5.43 µM) | < 1 | 2 to 4 (≈ 2.71 to 5.43 µM) |
| O=C(NCCCN1CCN(C(=O)NC(C(=O)N[C@H]2Cc3ccc(F)c(C(=O)O)c3OB2O)c2cc(F)c(O)c(O)c2Cl)C(=O)C1=O)Nc1cccnc1 (stereo partly drawn) [Example 213, (3R)-3-(2-(2-chloro-5-fluoro-3,4-dihydroxyphenyl)-2-(2,3-dioxo-4-(3-(3-(pyridin-3-yl)ureido)propyl)piperazine-1-carboxamido)acetamido)-7-fluoro-2-hydroxy-3,4-dihydro-2H-benzo[e][1,2]oxaborinine-8-carboxylic acid] | – | 16 to 32 (≈ 21.1 to 42.1 µM) | > 64 | 16 to 32 (≈ 21.1 to 42.1 µM) | > 64 | 16 to 32 (≈ 21.1 to 42.1 µM) | < 1 | 2 to 4 (≈ 2.63 to 5.26 µM) | 8 to 16 (≈ 10.5 to 21.1 µM) | 8 to 16 (≈ 10.5 to 21.1 µM) | < 1 | < 1 | < 1 | < 1 | < 1 |
| O=C(CN1CCN(C(=O)NC(C(=O)N[C@H]2Cc3ccc(F)c(C(=O)O)c3OB2O)c2cc(F)c(O)c(O)c2Cl)C(=O)C1=O)NCc1ccc(O)cc1 (stereo partly drawn) [Example 236, (3R)-3-(2-(2-chloro-5-fluoro-3,4-dihydroxyphenyl)-2-(4-(2-((4-hydroxybenzyl)amino)-2-oxoethyl)-2,3-dioxopiperazine-1-carboxamido)acetamido)-7-fluoro-2-hydroxy-3,4-dihydro-2H-benzo[e][1,2]oxaborinine-8-carboxylic acid] | < 10 | – | – | – | – | – | < 1 | 8 to 16 (≈ 10.7 to 21.5 µM) | 8 to 16 (≈ 10.7 to 21.5 µM) | > 128 | – | – | – | < 1 | 2 to 4 (≈ 2.68 to 5.36 µM) |

Source: patent US20240270762A1, “PENICILLIN-BINDING PROTEIN INHIBITORS” (priority 2021, published 2024)
